The values that follow come from PMC12057336 (Antimicrobial Agents and Chemotherapy, 2025).

A word on the AUC(0-inf): it is the area under the concentration-time curve extrapolated to infinity. Higher therefore signals more exposure. As usually defined, the clearance is the rate of elimination divided by the concentration. A low value points to inefficient removal. The Vd is a proportionality between amount in the body and measured concentration, not a real space. A high value points to extensive tissue distribution. By Tmax is commonly meant the time at which the peak concentration occurs. As a reminder, the Cmax is the maximum level reached in the sampled fluid or tissue. For orientation: half-life means how long it takes for the measured level to halve. The low end stands for fast loss, the high end for slow loss.

For data set [1], the system named is OAT1. The following applies: cited from earlier work.
Data set [2] can be described thus: Pharmacokinetics (plasma, urine) of linezolid and metabolites after i.g. or i.v. linezolid in control, CCl4-induced and 5/6 Nx rats. Conditions: for AUC(0-inf): AUC0-∞. From the text: The control group rats were intraperitoneally injected with equal volumes of soybean oil. […] The upper and lower poles of the left kidney were removed under urethane anesthesia (1 g/kg; administered by i.p. injection). One week later, the right kidney was completely excised. Rats in the control group underwent a sham operation ([35]). Serum creatinine (CREA), blood urea nitrogen (BUN), aspartate aminotransferase (AST), alanine aminotransferase (ALT), alkaline phosphatase (ALP), lactate dehydrogenase (LDH), and total bilirubin (TBIL) levels were measured using commercial kits (Shanghai Enzyme-linked Biotechnology Co., Ltd., Shanghai, China) according to the protocols described by the manufacturer before pharmacokinetic experiments.
The rats were first divided into two groups: i.v. or i.g. administration groups. These two groups were further divided into the following four subgroups (n = 5): soybean oil-treated control rats, CCl4-induced rats, sham-operated control rats, and 5/6 Nx rats. […] Blood samples (200 µL) were collected from the retro-orbital venous plexus into heparinized tubes at 0 (pre-dose), 0.25, 0.5, 0.75, 1, 2, 3, 4, 6, 8, 12, and 24 h after i.g. administration, and at 0 (pre-dose), 0.083, 0.25, 0.5, 0.75, 1, 2, 3, 4, 6, 8, 12, and 24 h after i.v. administration. Plasma samples were separated by centrifugation at 6,000 × g for 5 min at 4°C and stored at −80°C until further analysis using HPLC.
Chromatographic separation was performed using the SinoPak BEH T-C18 column (4.6 mm × 150 mm, 5 µm, Hi-tech Zone, China) at 35°C. A photodiode array detector was set at a wavelength of 254 nm. The mobile phase consisted of 0.1% (vol/vol) formic acid in water (A) and acetonitrile (B). The gradient conditions were as follows: 0–4.0 min, 14%–86% B; 4.0–5.0 min, […]; 5.0–5.7 min, return to 14% B; 5.7–8.0 min, equilibrium. The flow rate was 1.0 mL/min.
Plasma and tissue homogenate samples (100 µL) were mixed with 10 µL of IS (50.0 mg/L) and 200 µL of acetonitrile, followed by vortex-mixing for 3 min. The mixture was centrifuged at 15,000 × g for 15 min at 4°C. Then, 5 µL of the supernatant was analyzed. The urine samples were diluted and directly injected for measurement.
The area under the plasma concentration-time curve from 0 to infinity (AUC0-∞), time to maximum concentration (tmax), Cmax, t1/2, CL, and Vd were calculated by non-compartmental model analysis using the Phoenix 8.1.0 WinNonlin software (Pharsight Corp, Princeton, NJ, USA). The renal clearance (CLr), in vitro hepatic clearance (CLint, in vitro), and bioavailability (F) were calculated using the following equations:
F (%) = Div×AUC0−∞, ig/Dig×AUC0−∞, iv
Atotal is the total cumulative amount excreted in urine over 24 h. D is the administered dose. The scale factor is 4,680 (10^6 cells/kg). All data are expressed as mean ± standard deviation (SD). Statistical analysis was performed using Student’s two-tailed unpaired t-test or nonparametric Mann-Whitney U test with SPSS Statistics 19.0 (SPSS Inc., Chicago, IL, USA). Statistical significance was set at P < 0.05.

Data set [3] concerns OCT2. The following applies: cited from earlier work.
For data set [4], the system named is OATP1B3. Conditions: cited from earlier work.
The target of data set [5] is human OATP1B3 (Homo sapiens, UniProt Q9NPD5). The following applies: 5 µM; 10 min; 37°C; vs mock cells. The protocol: (§1) OATP1B1-, OATP1B3-, OATP2B1-, NTCP-, OAT1-, and OAT3-transfected HEK293 cells were cultured in DMEM supplemented with 10% FBS, 100 U/mL penicillin-streptomycin at 37°C with 95% relative humidity atmosphere containing 5% CO2. All cells were seeded in 24-well plates at a density of 4 × 10^5 cells/well and cultured for 1–2 days until they reached 80%–90% confluence. Prior to the initiation of uptake studies, the cells were washed twice with HBSS buffer at 37°C. Membrane vesicles were stored at −80°C and thawed at 37°C prior to the initiation of the studies.
Sequence of human OATP1B3 (Q9NPD5 whole entry): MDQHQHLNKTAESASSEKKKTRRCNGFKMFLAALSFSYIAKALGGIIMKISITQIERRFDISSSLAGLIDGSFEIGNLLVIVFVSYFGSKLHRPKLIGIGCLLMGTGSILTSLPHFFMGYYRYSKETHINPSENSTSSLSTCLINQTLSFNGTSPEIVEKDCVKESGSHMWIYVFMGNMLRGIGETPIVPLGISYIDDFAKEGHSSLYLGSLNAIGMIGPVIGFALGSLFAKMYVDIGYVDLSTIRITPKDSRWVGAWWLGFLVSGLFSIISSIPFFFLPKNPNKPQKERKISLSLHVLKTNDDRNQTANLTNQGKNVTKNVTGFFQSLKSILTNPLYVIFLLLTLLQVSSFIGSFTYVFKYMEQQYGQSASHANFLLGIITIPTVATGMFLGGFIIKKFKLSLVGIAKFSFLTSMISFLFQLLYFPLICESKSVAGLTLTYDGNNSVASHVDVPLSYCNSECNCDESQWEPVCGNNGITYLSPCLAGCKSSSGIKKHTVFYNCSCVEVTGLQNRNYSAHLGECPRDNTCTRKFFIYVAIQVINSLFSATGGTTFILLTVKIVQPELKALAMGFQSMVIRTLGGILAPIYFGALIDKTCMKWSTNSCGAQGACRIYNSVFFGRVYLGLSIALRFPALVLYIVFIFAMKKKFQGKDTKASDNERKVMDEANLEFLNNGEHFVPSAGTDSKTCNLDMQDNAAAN
(§2) All uptake tests were performed in triplicates. The activities of transporter-transfected HEK293 cells were evaluated using relevant positive substrates and inhibitors. E17G (5 µM, OATP1B1 and OATP1B3), ES (2 µM, OATP2B1), ES (5 µM, OAT3), TCA (10 µM, NTCP), and PAH (20 µM, OAT1) were used as substrates of the transporters. The inhibitors for each transporter were rifampicin (200 µM, OATP1B1 and OATP1B3), erlotinib (10 µM, OATP2B1), CsA (20 µM, NTCP), and probenecid (200 µM, OAT1 and OAT3).
(§3) The cells were washed three times with ice-cold HBSS buffer. […] The total protein concentration was measured using a BCA Protein Assay Kit. The uptake rates of HEK293-OATP1B1, HEK293-OATP1B3, HEK293-OATP2B1, HEK293-NTCP, HEK293-OAT1, HEK293-OAT3, and mock cells were calculated. […]

Data set [6] concerns the target human OATP1B1 (Homo sapiens, UniProt Q9Y6L6). The following applies: 5 µM; 10 min; 37°C; vs mock cells. As to the method: as §1, §2, §3
The mark [7] stands for this setting: Sprague-Dawley, rat, in vivo, iv.
Setting [8] is: Sprague-Dawley, rat, in vivo, po, 63 mg/kg.

Structures are written as SMILES.

Sequence of human OATP1B1 (Q9Y6L6 whole entry): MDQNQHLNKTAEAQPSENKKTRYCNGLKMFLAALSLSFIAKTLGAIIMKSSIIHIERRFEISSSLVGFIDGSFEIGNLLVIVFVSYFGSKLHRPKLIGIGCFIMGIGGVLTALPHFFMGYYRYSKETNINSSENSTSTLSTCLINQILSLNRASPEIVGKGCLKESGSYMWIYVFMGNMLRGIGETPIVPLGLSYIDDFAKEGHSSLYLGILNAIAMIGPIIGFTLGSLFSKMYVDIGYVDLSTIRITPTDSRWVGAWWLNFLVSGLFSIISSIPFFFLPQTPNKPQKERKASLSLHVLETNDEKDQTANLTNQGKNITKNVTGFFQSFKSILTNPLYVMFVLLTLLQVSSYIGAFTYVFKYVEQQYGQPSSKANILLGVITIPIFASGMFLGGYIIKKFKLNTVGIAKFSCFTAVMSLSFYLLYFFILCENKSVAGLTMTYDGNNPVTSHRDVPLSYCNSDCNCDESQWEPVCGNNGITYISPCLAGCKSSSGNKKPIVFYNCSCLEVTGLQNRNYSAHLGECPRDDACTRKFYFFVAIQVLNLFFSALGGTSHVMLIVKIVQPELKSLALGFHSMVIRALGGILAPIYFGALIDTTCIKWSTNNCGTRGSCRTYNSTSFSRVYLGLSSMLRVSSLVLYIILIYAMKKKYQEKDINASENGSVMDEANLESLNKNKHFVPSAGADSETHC

`CC(=O)NC[C@H]1CN(c2ccc(N3CCOCC3)c(F)c2)C(=O)O1` [Linezolid]: the “inhibitor of OAT1” value in data set [1] is “inhibitor”. Further, the “change of cumulative urinary excretion rate” value in data set [2] (5/6 Nx rats vs control, P < 0.05) is “significantly decreased”; in data set [2] (CCl4-induced rats), “no significant changes”. The “decrease of CLr in comparison to sham-operated control rats” value in data set [2] (Sprague-Dawley, rat, in vivo) turned out to be 50.0%; in data set [2] (setting [7]), 66.7%. In addition, the “decrease of CL in comparison to soybean oil-treated control rats” value turned out to be 27.0% in data set [2] (setting [7]) and 13.8% in data set [2] (Sprague-Dawley, rat, in vivo, po). The total exposure AUC(0-inf) in data set [2] (Sprague-Dawley, rat, in vivo, iv, 25 mg/kg) was 69.3 ± 8.67 µg·h/mL; in data set [2] (setting [8]), 220 ± 27.6 µg·h/mL. Also, in data set [2] (Sprague-Dawley, rat, in vivo, iv, 25 mg/kg, CL), the clearance was 6.17 mL/min/kg. For the same molecule, the Vd in data set [2] (Sprague-Dawley, rat, in vivo, iv, 25 mg/kg, Vd) was found to be 0.63 ± 0.05 L/kg. In addition, the Tmax in data set [2] (setting [8]) was 0.9 ± 0.14 h. The molecule also came in with a tmax in data set [2] (setting [8]) of 1.0 h. The same molecule gave a CL renal in data set [2] (Sprague-Dawley, rat, in vivo, po, 63 mg/kg, CLr) of 0.333 mL/min/kg. The same molecule registered a Cmax in data set [2] (Sprague-Dawley, rat, in vivo, po, 63 mg/kg, Cmax) of 35300 ± 1100 ng/mL. The half-life in data set [2] (Sprague-Dawley, rat, in vivo, po, 63 mg/kg, t1/2) is 1.84 ± 0.27 h. Further, the “substrate for OCT2” value in data set [3] is recorded as “not a substrate”. Also, the “inhibitor of OATP1B3” value in data set [4] is recorded as “inhibitor”. Besides, the “substrate for OATP1B3” value in data set [5] was “not a substrate”. Also, the “substrate for OATP1B1” value in data set [6] was “not a substrate”.
